In publication PMC9598926, “Design and Synthesis of (Z)-5-(Substituted benzylidene)-3-cyclohexyl-2-thioxothiazolidin-4-one Analogues as Anti-Tyrosinase and Antioxidant Compounds: In Vitro and In Silico Insights” (Antioxidants, 2022):

Columns and labels:
Format in all cases: cell-based, murine
MITF = experiment: Western blot of nuclear MITF in α–MSH/IBMX stimulated B16F10 cells; details: 5, 10, 20 µM
Procedure: 2.15. Extraction of Cytosolic and Nuclear Proteins from Cells
Western blotting was used to determine tyrosinase and MITF protein levels. Briefly, B16F10 cells were seeded in 60 mm culture dishes in the presence or absence of α–MSH (1 µM) plus IBMX (200 µM) with or without analog 3 (5, 10, and 20 µM for final concentrations) for 24 h, washed twice with ice-cold PBS and centrifuged for 10 min at 12,000× g. Cell pellets were suspended in 10 mM Tris (pH 8.0) containing 0.1% NP-40, 1 mM DTT, 1.5 mM MgCl2, 1 mM PMSF, and protease inhibitors (GenDEPOT, Barker, TX, USA), incubated on ice for 15 min, and centrifuged for 10 min at 12,000× g at 4 °C. Supernatants were used as cytosolic fractions. […] The protein concentrations were determined using a bicinchoninic acid (BCA)™ assay kit (Pierce, Rockford, IL, USA). […]
Lysed protein samples from cells were boiled for 10 min in sample-loading buffer (0.1% bromophenol blue, 25% glycerol, 60 mM Tris-HCl (pH 6.8), 2% SDS, and 0.5% β-mercaptoethanol) at a volume ratio of 1:4. […] Immunoreactive proteins were detected using the enhanced chemiluminescence (ECL) detection reagent in the SuperSignal® West Pico Chemiluminescent Substrate kit (Advansta, San Jose, CA, USA). Western blot bands were visualized using a Davinch-Chemi imager™ (Davinch-K, Seoul, Korea), and quantification was conducted by densitometric analysis using CS analyzer software ver. […]

tyrosinase = experiment: RT-qPCR of tyrosinase mRNA in α–MSH/IBMX stimulated B16F10 cells
Procedure: (§1) 2.17. RNA Extraction and Quantitative Real Time-Polymerase Chain Reaction (RT-qPCR)
(§2) B16F10 cells were extracted using GeneAll RiboEx Total RNA extraction reagent (GeneAll Biotechnology, Seoul, Korea) and transferred to tubes, added with chloroform (0.1 mL), shaken vigorously for 30 sec, and centrifuged for 15 min at 12,000× g. Aqueous phases were transferred to fresh tubes, and equal volumes of isopropanol were added. Samples were then incubated at 4 °C for 10 min and centrifuged for 15 min at 12,000× g at 4 °C. Supernatants were discarded, and RNA pellets were washed once with 0.8 mL of 70% ethanol and by vortexing briefly and centrifuged for 5 min at 7500× g at 4 °C. Pellets were dried at 56 °C for 10–15 min and dissolved in 30 µL of diethyl pyrocarbonate (DEPC)-treated water. The levels of RNA were determined by a Nanodrop spectrophotometer (NANO-200, Allsheng, Hangzhou, China). Complementary DNA (cDNA) was synthesized from total RNA (2 µg) using SuPrime Script RT Premix (with random hexamer) cDNA Synthesis Kit (GeNet Bio, Daejeon, Korea). […]
(§3) To further investigate the anti-melanogenesis mechanism of analog 3, we examined its effect on the expressions of melanogenesis-associated genes and levels of melanogenesis-associated proteins in B16F10 cells. […] Nuclear levels of MITF protein were measured by Western blotting in α–MSH/IBMX-stimulated B16F10 cells. […]

TRP-1 = experiment: RT-qPCR of TRP-1 mRNA in α–MSH/IBMX stimulated B16F10 cells
Procedure: as §1, §2, §3

SMILES: O=C1/C(=C/c2ccc(O)cc2O)SC(=S)N1C1CCCCC1 [Analog 3, (Z)-3-Cyclohexyl-5-(2,4-dihydroxybenzylidene)-2-thioxothiazolidin-4-one]
- effect on α–MSH/IBMX-induced increases in MITF levels (nuclear protein) (MITF): significantly and concentration-dependently suppressed
- effect on expression of tyrosinase (mRNA) (tyrosinase; α–MSH/IBMX stimulated): significantly and concentration-dependently decreased
- tyrosinase gene expression (tyrosinase; α–MSH/IBMX stimulated (3.3-fold), 5 µM): 2.6 fold
- effect on expression of TRP-1 (mRNA) (TRP-1; α–MSH/IBMX stimulated): significantly and concentration-dependently decreased
- TRP-1 gene expression (TRP-1; α–MSH/IBMX stimulated (2.2-fold), 5 µM): 1.3 fold
